Laboratory results from patent publication US4731451A, “N-((2-oxo-3(2H)benzothiazolyl)methyl)-2-chloroacetanilides” (Monsanto Company, priority 1980, dated 1988).

Tests used:
Assay type in all cases: in vivo
[1] = system: Cocklebur; assay: Pre-emergent herbicidal activity (Table III)
Protocol: (§1) The pre-emergence tests are conducted as follows:
(§2) A good grade of top soil is placed in aluminum pans and compacted to a depth of three-eighths to one-half inch from the top of the pan. On the top of the soil is placed a predetermined number of seeds or vegetative propagules of various plant species. The soil required to level fill the pans after seeding or adding vegetative propagules is weighed into a pan. A known amount of the active ingredient applied in a solvent or as a wettable powder suspension and the soil are thoroughly mixed, and used as a cover layer for prepared pans. After treatment, the pans are moved into a greenhouse bench where they are watered from below as needed to give adequate moisture for germination and growth.
(§3) Approximately 2-3 weeks after seeding and treating, the plants are observed and the results recorded. The herbicidal rating is obtained by means of fixed scale based on the percent injury of each plant species. The ratings are defined as follows: […]
(§4) The compounds were further tested by utilizing the above procedure on the following plant species: […]

[2] = system: Lambsquarters; assay: Pre-emergent herbicidal activity (Table III)
Protocol: as §1, §2, §3, §4

[3] = system: Velvetleaf; assay: Pre-emergent herbicidal activity (Table III)
Protocol: as §1, §2, §3, §4

[4] = system: Soybean; assay: Pre-emergent herbicidal activity (Table III)
Protocol: as §1, §2, §3, §4

[5] = system: Wild Buckwheat; assay: Pre-emergent herbicidal activity (Table III)
Protocol: as §1, §2, §3, §4

[6] = system: Hemp Sesbania; assay: Pre-emergent herbicidal activity (Table III)
Protocol: as §1, §2, §3, §4

[7] = system: Smartweed; assay: Pre-emergent herbicidal activity (Table III)
Protocol: as §1, §2, §3, §4

[8] = system: Barnyardgrass; assay: Pre-emergent herbicidal activity (Table III)
Protocol: as §1, §2, §3, §4

[9] = system: Downy Brome; assay: Pre-emergent herbicidal activity (Table III)
Protocol: as §1, §2, §3, §4

[10] = system: Wheat; assay: Pre-emergent herbicidal activity (Table III)
Protocol: as §1, §2, §3, §4

[11] = system: Crabgrass; assay: Pre-emergent herbicidal activity (Table III)
Protocol: as §1, §2, §3, §4

[12] = system: Rice; assay: Pre-emergent herbicidal activity (Table III)
Protocol: as §1, §2, §3, §4

[13] = system: Sugarbeet; assay: Pre-emergent herbicidal activity (Table III)
Protocol: as §1, §2, §3, §4

[14] = system: Sorghum; assay: Pre-emergent herbicidal activity (Table III)
Protocol: as §1, §2, §3, §4

[15] = system: Panicum; assay: Pre-emergent herbicidal activity (Table III)
Protocol: as §1, §2, §3, §4

[16] = system: Morningglory; assay: Pre-emergent herbicidal activity (Table III)
Protocol: as §1, §2, §3, §4

[17] = system: Cocklebur; assay: Pre-emergent herbicidal activity (Table II); conditions: 2-3 weeks
Protocol: as §1, §2, §3
(§5) The plant species utilized in one set of tests, the data for which are shown in Table II, are identified by letter in accordance with the following legend: […]

[18] = system: Quackgrass; assay: Pre-emergent herbicidal activity (Table II); conditions: 2-3 weeks
Protocol: as §1, §2, §3, §5

[19] = system: Lambsquarters; assay: Pre-emergent herbicidal activity (Table II); conditions: 2-3 weeks
Protocol: as §1, §2, §3, §5

[20] = system: Velvetleaf; assay: Pre-emergent herbicidal activity (Table II); conditions: 2-3 weeks
Protocol: as §1, §2, §3, §5

[21] = system: Johnsongrass; assay: Pre-emergent herbicidal activity (Table II); conditions: 2-3 weeks
Protocol: as §1, §2, §3, §5

[22] = system: Smartweed; assay: Pre-emergent herbicidal activity (Table II); conditions: 2-3 weeks
Protocol: as §1, §2, §3, §5

[23] = system: Barnyardgrass; assay: Pre-emergent herbicidal activity (Table II); conditions: 2-3 weeks
Protocol: as §1, §2, §3, §5

[24] = system: Downy Brome; assay: Pre-emergent herbicidal activity (Table II); conditions: 2-3 weeks
Protocol: as §1, §2, §3, §5

[25] = system: Yellow Nutsedge; assay: Pre-emergent herbicidal activity (Table II); conditions: 2-3 weeks
Protocol: as §1, §2, §3, §5

[26] = system: Canada Thistle; assay: Pre-emergent herbicidal activity (Table II); conditions: 2-3 weeks
Protocol: as §1, §2, §3, §5

[27] = system: Morningglory; assay: Pre-emergent herbicidal activity (Table II); conditions: 2-3 weeks
Protocol: as §1, §2, §3, §5
Further: ranges in brackets are in %.

For COc1cccc(C)c1N(Cn1c(=O)sc2ccccc21)C(=O)CCl [Example 2, N-(2'-methoxy-6'-methyl)-N-[(2-oxo-3(2H)-benzothiazolyl)methyl]-2-chloroacetanilide], the Herbicidal rating ([1]; 0.0112 kg/ha) was 0 (0-24), the Herbicidal rating ([1]; 0.056 kg/ha) was 0 (0-24) and the Herbicidal rating ([1]; 0.28 kg/ha) was 0 (0-24). The Herbicidal rating ([1]; 1.12 kg/ha) was 0 (0-24), the Herbicidal rating ([1]; 5.6 kg/ha) was 0 (0-24) and the Herbicidal rating ([2]; 0.0112 kg/ha) was 0 (0-24). The Herbicidal rating ([2]; 0.056 kg/ha) was 0 (0-24), the Herbicidal rating ([2]; 0.28 kg/ha) was 2 (50-74) and the Herbicidal rating ([2]; 1.12 kg/ha) was 3 (75-100). For the same compound, the Herbicidal rating ([2]; 5.6 kg/ha) was 1 (25-49), the Herbicidal rating ([3]; 0.0112 kg/ha) was 0 (0-24) and the Herbicidal rating ([3]; 0.056 kg/ha) was 0 (0-24). The Herbicidal rating ([3]; 0.28 kg/ha) was 0 (0-24), the Herbicidal rating ([3]; 1.12 kg/ha) was 0 (0-24) and the Herbicidal rating ([3]; 5.6 kg/ha) was 0 (0-24). The Herbicidal rating ([4]; 0.0112 kg/ha) was 0 (0-24), the Herbicidal rating ([4]; 0.056 kg/ha) was 0 (0-24) and the Herbicidal rating ([4]; 0.28 kg/ha) was 0 (0-24). The Herbicidal rating ([4]; 1.12 kg/ha) was 0 (0-24), the Herbicidal rating ([4]; 5.6 kg/ha) was 0 (0-24) and the Herbicidal rating ([5]; 0.0112 kg/ha) was 0 (0-24). The Herbicidal rating ([5]; 0.056 kg/ha) was 0 (0-24), the Herbicidal rating ([5]; 0.28 kg/ha) was 0 (0-24) and the Herbicidal rating ([5]; 1.12 kg/ha) was 0 (0-24). The Herbicidal rating ([5]; 5.6 kg/ha) was 0 (0-24), the Herbicidal rating ([6]; 0.0112 kg/ha) was 0 (0-24) and the Herbicidal rating ([6]; 0.056 kg/ha) was 0 (0-24). For the same compound, the Herbicidal rating ([6]; 0.28 kg/ha) was 0 (0-24), the Herbicidal rating ([6]; 1.12 kg/ha) was 0 (0-24) and the Herbicidal rating ([6]; 5.6 kg/ha) was 2 (50-74). The Herbicidal rating ([7]; 0.0112 kg/ha) was 0 (0-24), the Herbicidal rating ([7]; 0.056 kg/ha) was 0 (0-24) and the Herbicidal rating ([7]; 0.28 kg/ha) was 1 (25-49). For the same compound, the Herbicidal rating ([7]; 1.12 kg/ha) was 2 (50-74), the Herbicidal rating ([7]; 5.6 kg/ha) was 2 (50-74) and the Herbicidal rating ([8]; 0.0112 kg/ha) was 0 (0-24). For the same compound, the Herbicidal rating ([8]; 0.056 kg/ha) was 2 (50-74), the Herbicidal rating ([8]; 0.28 kg/ha) was 3 (75-100) and the Herbicidal rating ([8]; 1.12 kg/ha) was 3 (75-100). For the same compound, the Herbicidal rating ([8]; 5.6 kg/ha) was 3 (75-100), the Herbicidal rating ([9]; 0.0112 kg/ha) was 0 (0-24) and the Herbicidal rating ([9]; 0.056 kg/ha) was 0 (0-24). The Herbicidal rating ([9]; 0.28 kg/ha) was 1 (25-49), the Herbicidal rating ([9]; 1.12 kg/ha) was 3 (75-100) and the Herbicidal rating ([9]; 5.6 kg/ha) was 3 (75-100). For the same compound, the Herbicidal rating ([10]; 0.0112 kg/ha) was 0 (0-24), the Herbicidal rating ([10]; 0.056 kg/ha) was 0 (0-24) and the Herbicidal rating ([10]; 0.28 kg/ha) was 0 (0-24). For the same compound, the Herbicidal rating ([10]; 1.12 kg/ha) was 0 (0-24), the Herbicidal rating ([10]; 5.6 kg/ha) was 2 (50-74) and the Herbicidal rating ([11]; 0.0112 kg/ha) was 0 (0-24). The Herbicidal rating ([11]; 0.056 kg/ha) was 0 (0-24), the Herbicidal rating ([11]; 0.28 kg/ha) was 1 (25-49) and the Herbicidal rating ([11]; 1.12 kg/ha) was 3 (75-100). For the same compound, the Herbicidal rating ([11]; 5.6 kg/ha) was 3 (75-100), the Herbicidal rating ([12]; 0.0112 kg/ha) was 0 (0-24) and the Herbicidal rating ([12]; 0.056 kg/ha) was 0 (0-24). For the same compound, the Herbicidal rating ([12]; 0.28 kg/ha) was 1 (25-49), the Herbicidal rating ([12]; 1.12 kg/ha) was 3 (75-100) and the Herbicidal rating ([12]; 5.6 kg/ha) was 3 (75-100). For the same compound, the Herbicidal rating ([13]; 0.0112 kg/ha) was 0 (0-24), the Herbicidal rating ([13]; 0.056 kg/ha) was 0 (0-24) and the Herbicidal rating ([13]; 0.28 kg/ha) was 0 (0-24). The Herbicidal rating ([13]; 1.12 kg/ha) was 0 (0-24), the Herbicidal rating ([13]; 5.6 kg/ha) was 0 (0-24) and the Herbicidal rating ([14]; 0.0112 kg/ha) was 0 (0-24). The Herbicidal rating ([14]; 0.056 kg/ha) was 0 (0-24), the Herbicidal rating ([14]; 0.28 kg/ha) was 0 (0-24) and the Herbicidal rating ([14]; 1.12 kg/ha) was 1 (25-49). For the same compound, the Herbicidal rating ([14]; 5.6 kg/ha) was 1 (25-49), the Herbicidal rating ([15]; 0.0112 kg/ha) was 0 (0-24) and the Herbicidal rating ([15]; 0.056 kg/ha) was 2 (50-74). For the same compound, the Herbicidal rating ([15]; 0.28 kg/ha) was 1 (25-49), the Herbicidal rating ([15]; 1.12 kg/ha) was 3 (75-100) and the Herbicidal rating ([15]; 5.6 kg/ha) was 3 (75-100). For the same compound, the Herbicidal rating ([16]; 0.0112 kg/ha) was 0 (0-24), the Herbicidal rating ([16]; 0.056 kg/ha) was 0 (0-24) and the Herbicidal rating ([16]; 0.28 kg/ha) was 0 (0-24). The Herbicidal rating ([16]; 1.12 kg/ha) was 0 (0-24), the Herbicidal rating ([16]; 5.6 kg/ha) was 0 (0-24) and the Herbicidal rating ([17]; 5.6 kg/ha) was 0 (0-24). For the same compound, the Herbicidal rating ([17]; 11.2 kg/ha) was 0 (0-24), the Herbicidal rating ([18]; 5.6 kg/ha) was 2 (50-74) and the Herbicidal rating ([18]; 11.2 kg/ha) was 1 (25-49). The Herbicidal rating ([19]; 5.6 kg/ha) was 1 (25-49), the Herbicidal rating ([19]; 11.2 kg/ha) was 1 (25-49) and the Herbicidal rating ([20]; 5.6 kg/ha) was 0 (0-24). For the same compound, the Herbicidal rating ([20]; 11.2 kg/ha) was 0 (0-24), the Herbicidal rating ([21]; 5.6 kg/ha) was 0 (0-24) and the Herbicidal rating ([21]; 11.2 kg/ha) was 0 (0-24). The Herbicidal rating ([22]; 5.6 kg/ha) was 0 (0-24), the Herbicidal rating ([22]; 11.2 kg/ha) was 0 (0-24) and the Herbicidal rating ([23]; 5.6 kg/ha) was 3 (75-100). The Herbicidal rating ([23]; 11.2 kg/ha) was 3 (75-100), the Herbicidal rating ([24]; 5.6 kg/ha) was 1 (25-49) and the Herbicidal rating ([24]; 11.2 kg/ha) was 2 (50-74). For the same compound, the Herbicidal rating ([25]; 5.6 kg/ha) was 3 (75-100), the Herbicidal rating ([25]; 11.2 kg/ha) was 3 (75-100) and the Herbicidal rating ([26]; 5.6 kg/ha) was 0 (0-24). For the same compound, the Herbicidal rating ([26]; 11.2 kg/ha) was 0 (0-24), the Herbicidal rating ([27]; 5.6 kg/ha) was 0 (0-24) and the Herbicidal rating ([27]; 11.2 kg/ha) was 0 (0-24).
